The experiment concerns the target T1, PARP1 (Homo sapiens, UniProt P09874).
T1 construct: purchased BPS Bioscience
The experiment is described as follows: PARP1 Biochemical Assay (BPS Bioscience kit, chemiluminescence). Conditions: histone-coated plate, biotinilated NAD+, 25° C. for 60 min, luminescence, read-out: PARP 1 inhibition IC50. Put shortly: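 Human PARP1 (25–75 ng/well) with activated DNA was incubated with compound on histone-coated wells. Biotinylated NAD+ was added and the reaction ran 60 min at 25 °C. Ribosylation was detected by streptavidin-HRP chemiluminescence, % inhibition was normalised to enzyme-free and uninhibited controls, and IC50 was fitted from % inhibition versus concentration.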
T1 sequence (P09874 whole entry): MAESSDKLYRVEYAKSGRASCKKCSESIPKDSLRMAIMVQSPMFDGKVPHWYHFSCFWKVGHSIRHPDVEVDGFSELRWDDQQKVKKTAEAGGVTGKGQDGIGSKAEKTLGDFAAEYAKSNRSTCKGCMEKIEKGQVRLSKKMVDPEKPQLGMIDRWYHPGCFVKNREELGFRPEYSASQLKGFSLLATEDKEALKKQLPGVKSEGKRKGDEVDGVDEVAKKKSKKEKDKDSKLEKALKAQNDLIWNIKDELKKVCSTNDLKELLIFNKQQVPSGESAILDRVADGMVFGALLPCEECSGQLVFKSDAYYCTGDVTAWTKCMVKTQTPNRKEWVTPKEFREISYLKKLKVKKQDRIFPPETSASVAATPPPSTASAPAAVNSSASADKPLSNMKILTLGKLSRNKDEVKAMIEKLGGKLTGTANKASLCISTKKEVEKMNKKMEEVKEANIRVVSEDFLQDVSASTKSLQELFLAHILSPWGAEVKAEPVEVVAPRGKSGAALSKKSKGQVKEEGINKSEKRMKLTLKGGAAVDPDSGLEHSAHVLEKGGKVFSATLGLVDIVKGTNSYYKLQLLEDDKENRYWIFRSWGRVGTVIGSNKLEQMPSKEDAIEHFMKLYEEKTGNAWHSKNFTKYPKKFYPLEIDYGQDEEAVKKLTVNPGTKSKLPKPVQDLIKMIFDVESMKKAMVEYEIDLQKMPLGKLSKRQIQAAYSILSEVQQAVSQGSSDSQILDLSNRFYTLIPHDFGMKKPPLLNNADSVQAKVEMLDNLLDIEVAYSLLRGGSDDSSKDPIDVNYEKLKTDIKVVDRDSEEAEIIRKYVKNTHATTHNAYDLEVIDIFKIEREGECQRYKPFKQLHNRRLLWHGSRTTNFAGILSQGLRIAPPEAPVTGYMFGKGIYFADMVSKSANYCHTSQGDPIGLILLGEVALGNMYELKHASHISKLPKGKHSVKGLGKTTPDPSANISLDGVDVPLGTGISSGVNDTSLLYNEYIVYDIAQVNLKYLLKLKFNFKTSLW
In the case of `O=c1[nH]c([C@H]2CC[C@@H](N3CCN(c4cccc(F)c4)CC3)C2)nc2c1CC1(CC2)CC1` [Compound 155, 2′-((1S,3R)-3-(4-(3-fluorophenyl)piperazin-1-yl)cyclopentyl)-7′,8′-dihydro-3′H-spiro[cyclopropane-1,6′-quinazolin]-4′(5′H)-one], the IC50 (commonly the concentration that gives 50% inhibition) lay within 501 to 5000 nM.
Turning to `O=c1[nH]c(C2=C[C@H](N3CCN(c4ncc(Cl)cc4Cl)CC3)CC2)nc2c1CC1(CC2)CC1` [Compound 107, (R)-2′-(3-(4-(3,5-dichloropyridin-2-yl)piperazin-1-yl)cyclopent-1-en-1-yl)-7′,8′-dihydro-3′H-spiro[cyclopropane-1,6′-quinazolin]-4′(5′H)-one], the IC50 was 1 to 500 nM.
In the case of `CNC(=O)c1ccc(N2CCN([C@H]3C=C(c4nc5c(c(=O)[nH]4)CC4(CC5)CC4)CC3)CC2)cc1Cl` [Compound 94, (R)-2-chloro-N-methyl-4-(4-(3-(4′-oxo-4′,5′,7′,8′-tetrahydro-3′H-spiro[cyclopropane-1,6′-quinazolin]-2′-yl)cyclopent-2-en-1-yl)piperazin-1-yl)benzamide], the concentration for half-maximal inhibition (IC50) lay in the range of 1 to 500 nM.
On to `O=c1[nH]c(C2=C[C@H](N3CCN(c4cncc(F)c4)CC3)CC2)nc2c1CC1(CC2)CC1` [Compound 142, (R)-2′-(3-(4-(5-fluoropyridin-3-yl)piperazin-1-yl)cyclopent-1-en-1-yl)-7′,8′-dihydro-3′H-spiro[cyclopropane-1,6′-quinazolin]-4′(5′H)-one], for which the 50% inhibitory concentration (IC50) was in the range of 1 to 500 nM.
In the case of `O=c1[nH]c(C2=C[C@H](N3CCN(c4cc(F)cc(Cl)c4)CC3)CC2)nc2c1CC1(CC2)CC1` [Compound 115, (R)-2′-(3-(4-(3-chloro-5-fluorophenyl)piperazin-1-yl)cyclopent-1-en-1-yl)-7′,8′-dihydro-3′H-spiro[cyclopropane-1,6′-quinazolin]-4′(5′H)-one], the IC50 was in the range of 501 to 5000 nM.
Consider `CC(C)(/C=C/c1nc2c(c(=O)[nH]1)CC1(CC2)CC1)N1CCN(c2ccc(F)cc2)CC1` [Compound 31, (E)-2′-(3-(4-(4-fluorophenyl)piperazin-1-yl)-3-methylbut-1-en-1-yl)-7′,8′-dihydro-3′H-spiro[cyclopropane-1,6′-quinazolin]-4′(5′H)-one], for which the half-inhibitory concentration (IC50) fell in the range of 5000 to 500000 nM.
As for `O=c1[nH]c(C2=C[C@H](N3CC=C(c4ccc(Cl)cc4)CC3)CC2)nc2c1CC1(CC2)CC1` [Compound 46, (R)-2′-(3-(4-(4-chlorophenyl)-5,6-dihydropyridin-1(2H)-yl)cyclopent-1-en-1-yl)-7′,8′-dihydro-3′H-spiro[cyclopropane-1,6′-quinazolin]-4′(5′H)-one], the IC50 lay in the range of 1 to 500 nM.
As for `CNC(=O)c1cnc(N2CCN([C@H]3C=C(c4nc5c(c(=O)[nH]4)CC4(CC5)CC4)CC3)CC2)c(F)c1` [Compound 112, (R)-5-fluoro-N-methyl-6-(4-(3-(4′-oxo-4′,5′,7′,8′-tetrahydro-3′H-spiro[cyclopropane-1,6′-quinazolin]-2′-yl)cyclopent-2-en-1-yl)piperazin-1-yl)nicotinamide], the IC50 lay in the range of 501 to 5000 nM.
With `O=c1[nH]c(C2=C[C@H](N3CCN(c4ccccc4Cl)CC3)CC2)nc2c1CC1(CC2)CC1` [Compound 122, (R)-2′-(3-(4-(2-chlorophenyl)piperazin-1-yl)cyclopent-1-en-1-yl)-7′,8′-dihydro-3′H-spiro[cyclopropane-1,6′-quinazolin]-4′(5′H)-one], the concentration for half-maximal inhibition (IC50) lay within 1 to 500 nM.
With `O=c1[nH]c(CCCN2CCN(c3ccc(F)cc3)CC2)nc2c1CC1(CC2)CC1` [Compound 5, 2′-(3-(4-(4-fluorophenyl)piperazin-1-yl)propyl)-7′,8′-dihydro-3′H-spiro[cyclopropane-1,6′-quinazolin]-4′(5′H)-one], the 50% inhibitory concentration (IC50) lay within 1 to 500 nM.
Regarding `Cc1cc(N2CCN([C@H]3C=C(c4nc5c(c(=O)[nH]4)CC4(CC5)CC4)CC3)CC2)ccn1` [Compound 147, (R)-2′-(3-(4-(2-methylpyridin-4-yl)piperazin-1-yl)cyclopent-1-en-1-yl)-7′,8′-dihydro-3′H-spiro[cyclopropane-1,6′-quinazolin]-4′(5′H)-one], the concentration for half-maximal inhibition (IC50) lay in the range of 1 to 500 nM.
`O=c1[nH]c(CCCN2CC3CC2CN3c2ccc(F)cc2)nc2c1CC1(CC2)CC1` (stereo not shown) [Compound 11, 2′-(3-(5-(4-fluorophenyl)-2,5-diazabicyclo[2.2.1]heptan-2-yl)propyl)-7′,8′-dihydro-3′H-spiro[cyclopropane-1,6′-quinazolin]-4′(5′H)-one]: the IC50 lay in the range of 501 to 5000 nM.
For `O=c1[nH]c([C@@H]2CC[C@@H](N3CCN(c4ccc(Cl)cc4)CC3)C2)nc2c1CC1(CC2)CC1` [Compound 121, 2′-((1R,3R)-3-(4-(4-chlorophenyl)piperazin-1-yl)cyclopentyl)-7′,8′-dihydro-3′H-spiro[cyclopropane-1,6′-quinazolin]-4′(5′H)-one], the half-inhibitory concentration (IC50) is 5000 to 500000 nM.
In the case of `Cc1ncccc1N1CCN([C@H]2C=C(c3nc4c(c(=O)[nH]3)CC3(CC4)CC3)CC2)CC1` [Compound 129, (R)-2′-(3-(4-(2-methylpyridin-3-yl)piperazin-1-yl)cyclopent-1-en-1-yl)-7′,8′-dihydro-3′H-spiro[cyclopropane-1,6′-quinazolin]-4′(5′H)-one], the IC50 was in the range of 1 to 500 nM.
For the compound `Cc1ccc(N2CCN([C@H]3C=C(c4nc5c(c(=O)[nH]4)CC4(CC5)CC4)CC3)CC2)nc1` [Compound 124, (R)-2′-(3-(4-(5-methylpyridin-2-yl)piperazin-1-yl)cyclopent-1-en-1-yl)-7′,8′-dihydro-3′H-spiro[cyclopropane-1,6′-quinazolin]-4′(5′H)-one], the IC50 lay within 1 to 500 nM.
With `Cc1ccc(N2CCN(CCCc3nc4c(c(=O)[nH]3)CC3(CC4)CC3)CC2)cc1` [Compound 32, 2′-(3-(4-(p-tolyl)piperazin-1-yl)propyl)-7′,8′-dihydro-3′H-spiro[cyclopropane-1,6′-quinazolin]-4′(5′H)-one], the IC50 fell in the range of 1 to 500 nM.
In the case of `O=c1[nH]c(C2=C[C@@H](N3CCN(c4ccc(F)cc4)CC3)CC2)nc2c1CC1(CC2)CC1` [Compound 43, (S)-2′-(3-(4-(4-fluorophenyl)piperazin-1-yl)cyclopent-1-en-1-yl)-7′,8′-dihydro-3′H-spiro[cyclopropane-1,6′-quinazolin]-4′(5′H)-one], the concentration for half-maximal inhibition (IC50) lay in the range of 5000 to 500000 nM.
With `CC(C)(CCc1nc2c(c(=O)[nH]1)CC1(CC2)CC1)N1CCN(c2ccc(F)cc2)CC1` [Compound 30, 2′-(3-(4-(4-fluorophenyl)piperazin-1-yl)-3-methylbutyl)-7′,8′-dihydro-3′H-spiro[cyclopropane-1,6′-quinazolin]-4′(5′H)-one], the IC50 is 1 to 500 nM.
In the case of `Cc1cnc(N2CCN([C@H]3C=C(c4nc5c(c(=O)[nH]4)CC4(CC5)CC4)CC3)CC2)s1` [Compound 113, (R)-2′-(3-(4-(5-methylthiazol-2-yl)piperazin-1-yl)cyclopent-1-en-1-yl)-7′,8′-dihydro-3′H-spiro[cyclopropane-1,6′-quinazolin]-4′(5′H)-one], the IC50 lay in the range of 1 to 500 nM.
`O=c1[nH]c(CCCN2CCN(c3ccncc3)CC2)nc2c1CC1(CC2)CC1` [Compound 29, 2′-(3-(4-(pyridin-4-yl)piperazin-1-yl)propyl)-7′,8′-dihydro-3′H-spiro[cyclopropane-1,6′-quinazolin]-4′(5′H)-one]: the concentration for half-maximal inhibition (IC50) lay in the range of 1 to 500 nM.
For `O=c1[nH]c([C@H]2CC[C@@H](N3CCN(c4ccc(F)cc4)CC3)C2)nc2c1CC1(CC2)CC1` [Compound 151, 2′-((1S,3R)-3-(4-(4-fluorophenyl)piperazin-1-yl)cyclopentyl)-7′,8′-dihydro-3′H-spiro[cyclopropane-1,6′-quinazolin]-4′(5′H)-one] the value was 1 to 500 nM; for `CC1(C)CC(c2nc3c(c(=O)[nH]2)CC2(CC3)CC2)=C[C@@H]1N1CCN(c2ccc(F)cc2)CC1` [Compound 71, (S)-2′-(3-(4-(4-fluorophenyl)piperazin-1-yl)-4,4-dimethylcyclopent-1-en-1-yl)-7′,8′-dihydro-3′H-spiro[cyclopropane-1,6′-quinazolin]-4′(5′H)-one], 5000 to 500000 nM.
For `O=c1[nH]c([C@H]2CC[C@@H](N3CCN(c4ccc(Cl)cc4)CC3)C2)nc2c1CC1(CC2)CC1` [Compound 120, 2′-((1S,3R)-3-(4-(4-chlorophenyl)piperazin-1-yl)cyclopentyl)-7′,8′-dihydro-3′H-spiro[cyclopropane-1,6′-quinazolin]-4′(5′H)-one], the IC50 lay within 501 to 5000 nM.
With `O=c1[nH]c(C2=C[C@H](N3CCN(c4cc(Cl)ccc4F)CC3)CC2)nc2c1CC1(CC2)CC1` [Compound 138, (R)-2′-(3-(4-(5-chloro-2-fluorophenyl)piperazin-1-yl)cyclopent-1-en-1-yl)-7′,8′-dihydro-3′H-spiro[cyclopropane-1,6′-quinazolin]-4′(5′H)-one], the IC50 lay in the range of 501 to 5000 nM.
For the compound `O=c1[nH]c(C2=C[C@@H](N3CCN(c4ccc(F)cc4)CC3)CC2)nc2c1CCCC21CC1` [Compound 49, (S)-2′-(3-(4-(4-fluorophenyl)piperazin-1-yl)cyclopent-1-en-1-yl)-6′,7′-dihydro-3′H-spiro[cyclopropane-1,8′-quinazolin]-4′(5′H)-one], the half-inhibitory concentration (IC50) is 1 to 500 nM.
For `O=c1[nH]c(CCCN2CCN(c3ccc(F)cc3)CC2)nc2c1CC1CC1C2` (stereo not shown) [Compound 24, 2-(3-(4-(4-fluorophenyl)piperazin-1-yl)propyl)-5a,6,6a,7-tetrahydro-3H-cyclopropa[g]quinazolin-4(5H)-one] the value was 1 to 500 nM; for `CNC(=O)c1cnc(N2CCN([C@H]3C=C(c4nc5c(c(=O)[nH]4)CC4(CC5)CC4)CC3)CC2)c(Cl)c1` [Compound 103, (R)-5-chloro-N-methyl-6-(4-(3-(4′-oxo-4′,5′,7′,8′-tetrahydro-3′H-spiro[cyclopropane-1,6′-quinazolin]-2′-yl)cyclopent-2-en-1-yl)piperazin-1-yl)nicotinamide], 1 to 500 nM; for `O=c1[nH]c(CCCN2CC=C(c3ccc(F)cc3)CC2)nc2c1CC1(CC2)CC1` [Compound 9, 2′-(3-(4-(4-fluorophenyl)-5,6-dihydropyridin-1(2H)-yl)propyl)-7′,8′-dihydro-3′H-spiro[cyclopropane-1,6′-quinazolin]-4′(5′H)-one], 1 to 500 nM.
